Experimental data taken from ChEMBL document CHEMBL4017513, “Structure-Activity Relationships of Potent, Targeted Covalent Inhibitors That Abolish Both the Transamidation and GTP Binding Activities of Human Tissue Transglutaminase” (J Med Chem, 2017).
pEC50, pKi: −log10 of the molar value. Peptide text beside a SMILES is read from it. * marks the point of attachment. Cbz = O=C(OCc1ccccc1)*; Acryloyl = C=CC(=O)*

Assays:
[1] = biological target: T1, Protein-glutamine gamma-glutamyltransferase (Homo sapiens) (UniProt P21980); assay: (§1) Irreversible inhibition of human TG2 using AL5 as substrate by colorimetric assay
T1 sequence (whole entry): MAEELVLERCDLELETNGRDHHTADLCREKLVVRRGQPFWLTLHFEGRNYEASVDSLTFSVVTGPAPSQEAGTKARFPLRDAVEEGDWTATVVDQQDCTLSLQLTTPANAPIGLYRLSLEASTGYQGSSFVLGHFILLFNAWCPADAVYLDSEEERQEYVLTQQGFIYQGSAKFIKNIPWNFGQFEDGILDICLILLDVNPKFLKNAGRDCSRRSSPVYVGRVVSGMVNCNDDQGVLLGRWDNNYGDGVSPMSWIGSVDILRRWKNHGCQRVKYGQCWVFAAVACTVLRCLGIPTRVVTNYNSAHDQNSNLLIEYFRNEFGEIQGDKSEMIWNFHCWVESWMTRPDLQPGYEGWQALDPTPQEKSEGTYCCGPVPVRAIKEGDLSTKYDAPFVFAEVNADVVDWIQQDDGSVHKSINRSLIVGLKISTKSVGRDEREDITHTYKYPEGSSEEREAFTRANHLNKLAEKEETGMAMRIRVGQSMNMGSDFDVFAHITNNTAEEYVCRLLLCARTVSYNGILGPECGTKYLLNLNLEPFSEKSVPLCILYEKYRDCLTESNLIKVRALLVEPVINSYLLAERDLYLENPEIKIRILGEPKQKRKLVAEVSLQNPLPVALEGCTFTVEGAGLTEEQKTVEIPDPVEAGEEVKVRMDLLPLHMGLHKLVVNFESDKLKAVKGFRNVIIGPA

[2] = biological target: T2, Protein-glutamine gamma-glutamyltransferase (Homo sapiens, UniProt P21980); assay: as §1
T2 sequence (P21980 whole entry): T1 sequence (whole entry)

[3] = biological target: T1, Protein-glutamine gamma-glutamyltransferase (Homo sapiens); assay: Ratio of kinact to Ki for human TG2 by colorimetric assay
[4] = biological target: T1, Protein-glutamine gamma-glutamyltransferase (Homo sapiens); assay: (§2) Irreversible inhibition of human TG2 using AL5 as substrate by double reciprocal plot method
[5] = biological target: T2, Protein-glutamine gamma-glutamyltransferase; assay: as §2
[6] = biological target: T1, Protein-glutamine gamma-glutamyltransferase (Homo sapiens); assay: Ratio of kinact to Ki for human TG2 by double reciprocal plot method
[7] = Inhibition of guinea pig liver TG2 using Z-Gln-Gly/DMPDA as substrate preincubated for 3 mins followed by protein addition; parameters: species or system Cavia porcellus
[8] = species on record: Cavia porcellus; assay: Ratio of Kinact to Ki for guinea pig liver TG2
[9] = Inhibition of human ECS cells invasion by using Engelbreth-Holm-Swarm mouse tumor matrigel measured after 18 hrs by DAPI staining-based flourescence microscopy; assay type: functional, cell-based

Row | Compound | Kinact [1] [min⁻¹] | pKi [2] | Ratio [3] [×10³ /M/min] | other results
1 | C=CC(=O)NCCCC[C@H](NC(=O)OCc1ccccc1)C(=O)N1CCN(c2ccccc2Cl)CC1 | 0.97 | 4.76 | 56 | 
2 | C=CC(=O)NCCCC[C@H](NC(=O)OCc1ccccc1)C(=O)N1CCN(S(=O)(=O)c2cccc3ccccc23)CC1 | 0.39 | 4.98 | 37.2 | 
3 | C=CC(=O)NCCCC[C@H](NC(=O)OCc1ccccc1)C(=O)NCCNS(=O)(=O)c1cccc2c(N(C)C)cccc12 |  |  |  | Kinact [4]: 1.45 min⁻¹; pKi [5]: 4.63; Ratio [6]: 61.5 ×10³ /M/min
4 | C=CC(=O)NCCCC[C@H](NC(=O)OCc1ccccc1)C(=O)N1CCN(C(=O)Cc2ccccc2)CC1 | 2.26 | 4.70 | 113 | 
5 | C=CC(=O)NCCCC[C@H](NC(=O)OCc1ccccc1)C(=O)N1CCN(C(=O)c2cc3ccc(O)cc3oc2=O)CC1 | 0.69 | 4.95 | 62.1 | 
6 | C=CC(=O)NCCCC[C@H](NC(=O)OCc1ccccc1)C(=O)N1CCN(S(=O)(=O)c2ccccc2)CC1 | 0.47 | 5.06 | 53.3 | 
7 | C=CC(=O)NCCCC[C@H](NC(=O)OCc1ccccc1)C(=O)NCCCNS(=O)(=O)c1cccc2c(N(C)C)cccc12 |  |  |  | Kinact [4]: 0.85 min⁻¹; pKi [5]: 4.52; Ratio [6]: 27.6 ×10³ /M/min
8 | C=CC(=O)NCCCC[C@H](NC(=O)OCc1ccccc1)C(=O)N1CCN(C(=O)c2ccccc2)CC1 | 4.77 | 4.44 | 130 | 
9 | C=CC(=O)NCCCC[C@H](NC(=O)OCc1ccccc1)C(=O)N1CCN(S(=O)(=O)C(C)C)CC1 | 0.5 | 5.04 | 54.7 | 
10 | C=CC(=O)NCCCC[C@H](NC(=O)OCc1ccccc1)C(N)=O |  |  |  | Kinact [4]: 1.08 min⁻¹; pKi [5]: 4.45; Ratio [6]: 30.7 ×10³ /M/min
11 | C=CC(=O)NCCCC[C@H](NC(=O)OCc1ccccc1)C(=O)NCC(=O)OC (Cbz-Lys(Acryloyl)-Gly-OMe) | 1.45 | 4.40 | 36.2 | 
12 | C=CC(=O)NCCCC[C@H](NC(=O)OCc1ccccc1)C(=O)N1CCN(C(C)=O)CC1 | 2.06 | 4.28 | 36.9 | 
13 | C=CC(=O)NCCCC[C@H](NC(=O)OCc1ccccc1)C(=O)N1CCN(C(=O)c2ccc3ccccc3c2)CC1 | 1.21 | 4.87 | 90.3 | 
14 | C=CC(=O)NCCCC[C@H](NC(=O)OCc1ccccc1)C(=O)N1CCN(S(=O)(=O)c2cccs2)CC1 | 1.48 | 4.40 | 36.8 | 
15 | C=CC(=O)NCCCC[C@H](NC(=O)OCc1ccccc1)C(=O)N1CCN(C(=O)c2ccncc2)CC1 | 1.43 | 4.41 | 37 | 
16 | C=CC(=O)NCCCC[C@H](NC(=O)OCc1ccccc1)C(=O)N1CCN(S(=O)(=O)c2ccc3ccccc3c2)CC1 | 0.38 | 5.17 | 57.3 | 
17 | C=CC(=O)NCCCC[C@H](NC(=O)OCc1ccccc1)C(=O)N1CCN(C(=O)c2ccccn2)CC1 | 2.93 | 4.49 | 91.3 | 
18 | C=CC(=O)NCCCC[C@H](NC(=O)OCc1ccccc1)C(=O)NCCCCNS(=O)(=O)c1cccc2c(N(C)C)cccc12 |  |  |  | Kinact [4]: 2.19 min⁻¹; pKi [5]: 4.57; Ratio [6]: 80.8 ×10³ /M/min
19 | C=CC(=O)NCCC[C@H](NC(=O)OCc1ccccc1)C(=O)N1CCN(S(=O)(=O)c2cccc3c(N(C)C)cccc23)CC1 |  |  |  | Kinact [4]: 1.18 min⁻¹; pKi [5]: 4.32; Ratio [6]: 24.7 ×10³ /M/min
20 | C=CC(=O)NCCCC[C@H](NC(=O)OCc1ccccc1)C(=O)N1CCN(S(C)(=O)=O)CC1 | 0.5 | 5.19 | 78.4 | 
21 | C=CC(=O)NCCCC[C@H](NC(=O)OCc1ccccc1)C(=O)NCC(=O)O (Cbz-Lys(Acryloyl)-Gly-OH) | 1.26 | 4.32 | 26.1 | pKi [7]: 6.82; Ratio [8]: 3 ×10⁶ /M/min
22 | C=CC(=O)NCCCC[C@H](NC(=O)OCc1ccccc1)C(=O)N1CCOCC1 | 1.47 | 4.54 | 51 | 
23 | C=CC(=O)NCCCC[C@H](NC(=O)OCc1ccccc1)C(=O)N1CCN(S(=O)(=O)Cc2ccccc2)CC1 | 0.47 | 4.83 | 34.9 | 
24 | C=CC(=O)NCCCC[C@H](NC(=O)OCc1ccccc1)C(=O)N1CCN(S(=O)(=O)c2cccc3c(N(C)C)cccc23)CC1 |  | 4.89 |  | pEC50 [9]: 5.41
25 | C=CC(=O)NCCCC[C@H](NC(=O)OCc1ccccc1)C(=O)O |  | 4.22 |  | pKi [7]: 6.28
26 | C=CC(=O)NCCCC[C@H](NC(=O)OCc1ccccc1)C(=O)N1CCN(S(=O)(=O)CC)CC1 | 1.42 | 4.44 | 39.4 | 
27 | C=CC(=O)NCCCC[C@H](NC(=O)OCc1ccccc1)C(=O)N1CCN(C(=O)c2cccc3ccccc23)CC1 |  | 5.05 |  | 
28 | C=CC(=O)NCCCC[C@H](NC(=O)OCc1ccccc1)C(=O)N1CCN(S(=O)(=O)C2CCCCC2)CC1 | 0.69 | 4.96 | 62.9 | 
29 | C=CC(=O)NCCCC[C@H](NC(=O)OCc1ccccc1)C(=O)N1CCN(C(=O)c2cccnc2)CC1 | 1.44 | 4.63 | 61.4 | 
